# Experimental data reported in patent US20180000768A1, “INTESTINAL FXR AGONISM ENHANCES GLP-1 SIGNALING TO RESTORE PANCREATIC BETA CELL FUNCTIONS” (Salk Institute for Biological Studies, priority 2015, published 2018).
# “Also recorded” adds a separate entry of the source.
# What was measured:
# [1] = test system: human enteroendocrinal L cells (NCI-H716); assay: In vitro GLP-1 secretion assay; type: cell-based; settings: L cells pretreated with compound
# Procedure: (§1) In vitro GLP-1 secretion assay was performed in human enteroendocrinal L cells (NCI-H716). For each secretion assay, cells were seeded at 1×10^5 cells/ml (1 ml/well) in a matrigel-coated 24-well plate. Prior to GLP-1 secretion assay, cells were pre-treated with DMSO, 1 μM Fex, or 1 μM Fex-D overnight. Cells were deprived in Krebs buffer (with 0.1% BSA) with dipeptidyl peptidase (DPP)-4 inhibitor ([…] sitagliptin). GLP-1 was measured with a commercial kit (EZGLP1T-36K, Millipore). For in vivo GLP-1 secretion, each animal was gavaged with 25 mg per kg of body weight sitagliptin 60-minutes before glucose load. Blood was collected from the tail vein at the indicated intervals, and transferred to serum collection tubes containing sitagliptin.
# [2] = test system: pancreatic islets from ob/ob mice; assay: Insulin secretion assay on isolated pancreatic islets (ex vivo); type: cell-based, mouse; settings: islets from Fex-treated mice
# Procedure: Mouse pancreatic islets were isolated from ob/ob mice according to a method used for rats traditionally. Briefly, 0.5 mg/ml collagenase P (Roche) diluted in HBSS buffer was injected through the common bile duct and the perfused pancreas was dissected and incubated in water bath with 37° C. for 21 minutes. Digested exocrine cells and intact islets were separated using Histopaque-1077 (SIGMA) with centrifugation by 900 g for 15 minutes and intact islets were picked up manually.
# Insulin release from intact islets was monitored using batch incubation methods.
# Isolated pancreatic islets were cultured over-night with […] supplemented with 10% (v/v) fetal bovine serum and 1% (v/v) Antibiotics-antimycotic solution, were pre-cultured at 37° C. for 30 minutes in Krebs Ringer bicarbonate buffer (KRBH) containing 129.4 mM NaCl, 3.7 mM KCl, 2.7 mM CaCl2, 1.3 mM KH2PO4, 1.3 mM MgSO4, 24.8 mM NaHCO3 (equilibrated with 5% CO2, 95% O2, pH7.4), 10 mM HEPES and 0.2% (v/v) BSA (fraction V) with 3 mM glucose. N ext, the pancreatic islets were incubated for 30 minutes KRBH buffer (500 μl/10 islets) with 3 mM or 20 mM glucose with or without 100 nM Exendin-4 to determine insulin secretion levels. At the end of the incubation period, islets were pelleted by centrifugation, and aliquots of the buffer were sampled. The amounts of insulin were determined by Rat/mouse Insulin ELISA KIT (Millipore) for mice islets.
# [3] = test system: ob/ob mice; assay: in vivo GLP-1 secretion after glucose load; parameters: species or system mouse; settings: Fex-treated ob/ob mice, sitagliptin (25 mg/kg) prior to glucose challenge
# Procedure: as §1
# To investigate whether Fex enhances GLP-1 secretion in vivo, mice were challenged with a DPP4 inhibitor, sitagliptin (25 mg/kg) prior to a glucose challenge.
# [4] = test system: isolated islets; assay: gene expression after direct ex vivo treatment of isolated islets; type: cell-based, mouse; settings: 24 hours ex vivo, XL335 1 μM, Fex 1 μM
# Procedure: Leptin-deficient ob/ob mice were treated daily with vehicle, Fex, or the analogue Fex-D (50 mg/kg) via P.O. for 14 days (A) Chemical structures of fexaramine and Fex-D (B) Schematic of the experimental design (C) Serum glucose levels (D) Glucose tolerance test (E) Insulin secretion in vivo (F) GLP-1 secretion in vivo (G) Heatmap showing hierarchal clustering of gene expression changes in islet induced by Fex (100 mg/kg, 4 wks) and FexD (50 mg/kg, 2 weeks) treatment in ob/ob mice (in vivo); by treatment of islets with XL335 (1 μM), Fex (1 μM), mFgf15 and hFgf19 (24 hours ex vivo); and mFgf15 (0.15 mg/kg, 2 weeks) and INT777 (Tgr5, 60 mg/kg, 4 weeks) treatment of ob/ob mice (in vivo). Gene expression was measured by RNA-Seq and changes are expressed as Z-score. (H) Ven diagram of changes in gene expression in pancreatic islets induced by FEX (100 mg/kg for 5 weeks) and FEX-D (50 mg/kg for 14 days). […] Data represent the mean±STD. Statistical analysis was performed with the Student's t test. *p<0.05, **p<0.01.
# Next, primary islets were isolated from mice treated by Fex-D to compare gene expression changes.
# [5] = test system: enteroendocrinal L cells; assay: Gene expression analysis (QPCR) in enteroendocrinal L cells; type: cell-based, human
# [6] = test system: ob/ob mice; assay: in vivo glucose-stimulated insulin secretion (GSIS); parameters: species or system mouse; settings: Fex 100 mg/kg daily P.O., 5 weeks
# Procedure: Insulin resistance can be associated with reduced […] insulin secretion in response to glucose, while GLP-1 augments glucose-stimulated insulin secretion (GSIS). To examine whether Fex treatment improves GSIS, serum insulin levels were determined after a glucose challenge in ob/ob mice.
compound,measurement,setting,value
COC(=O)/C=C/c1cccc(N(Cc2ccc(-c3ccc(N(C)C)cc3)cc2)C(=O)C2CCCCC2)c1 [Fexaramine],GLP-1 secretion in response to a glucose challenge,[1],significant increase
same,ex vivo insulin secretion in response to 20 mM glucose,[2],dramatically increased
same,insulin content in ex vivo islets,[2],significantly higher
same,glucose tolerance after DPP4 inhibitor pre-treatment,[3],improved
same,plasma GLP-1 level 20 minutes after the glucose challenge,[3],increase
same,transcriptional changes seen in islets in vivo with Fex and Fex-D,[4],not observed
same,DPP4 expression,[5],no effect
same,proglucagon expression,[5],no effect
same,SHP expression (FXR target gene),[5]; listed as Fex,induced; also recorded: induction
same,serum insulin after a glucose challenge,[6],significant increase
